Assay [1] addresses Thymidylate synthase (Homo sapiens, UniProt P04818).
Description: Inhibition of human thymidylate synthase
Assay [2] deals with T1, Dihydrofolate reductase (Homo sapiens, UniProt P00374).
T1 sequence (P00374 whole entry): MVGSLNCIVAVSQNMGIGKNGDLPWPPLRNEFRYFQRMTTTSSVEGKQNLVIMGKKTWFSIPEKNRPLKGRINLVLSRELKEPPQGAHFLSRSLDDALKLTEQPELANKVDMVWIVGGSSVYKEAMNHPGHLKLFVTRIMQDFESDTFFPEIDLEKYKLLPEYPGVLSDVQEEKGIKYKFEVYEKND
Description: Inhibition of human recombinant DHFR

The target of assay [3] is T2, Bifunctional dihydrofolate reductase-thymidylate synthase (Toxoplasma gondii, UniProt Q07422).
T2 sequence (Q07422 whole entry): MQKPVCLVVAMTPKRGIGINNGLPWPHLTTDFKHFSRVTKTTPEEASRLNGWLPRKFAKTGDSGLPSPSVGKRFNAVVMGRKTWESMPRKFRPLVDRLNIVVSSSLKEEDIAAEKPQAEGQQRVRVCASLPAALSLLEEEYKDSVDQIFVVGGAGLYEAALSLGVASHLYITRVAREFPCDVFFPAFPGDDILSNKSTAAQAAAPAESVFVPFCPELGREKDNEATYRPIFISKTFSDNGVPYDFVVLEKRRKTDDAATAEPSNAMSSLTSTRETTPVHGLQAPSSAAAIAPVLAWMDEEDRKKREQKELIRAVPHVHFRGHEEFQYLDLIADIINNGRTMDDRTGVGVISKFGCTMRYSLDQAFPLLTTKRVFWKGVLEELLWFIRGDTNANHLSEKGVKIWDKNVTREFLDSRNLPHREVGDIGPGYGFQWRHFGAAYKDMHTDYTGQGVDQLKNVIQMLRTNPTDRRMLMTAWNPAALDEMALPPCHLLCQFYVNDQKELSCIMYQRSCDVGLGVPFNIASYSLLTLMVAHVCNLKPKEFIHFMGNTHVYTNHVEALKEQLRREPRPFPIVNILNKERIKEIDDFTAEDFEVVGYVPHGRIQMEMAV
Description: Inhibition of Toxoplasma gondii thymidylate synthase

The target in assay [4] is T2, Bifunctional dihydrofolate reductase-thymidylate synthase. The source holds these as a separate data set.
Description: Inhibition of Toxoplasma gondii DHFR
Assay [5] has as its target T3, Dihydrofolate reductase (Escherichia coli) (UniProt P0ABQ4).
T3 sequence (whole entry): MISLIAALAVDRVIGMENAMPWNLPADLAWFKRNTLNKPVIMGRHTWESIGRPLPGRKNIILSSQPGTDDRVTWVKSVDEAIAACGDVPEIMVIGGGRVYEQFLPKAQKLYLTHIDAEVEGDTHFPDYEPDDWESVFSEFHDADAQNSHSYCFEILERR
As to the kind of experiment: Inhibition of Escherichia coli DHFR at >[…] uM.

Chain of Thymidylate synthase (P04818 whole entry): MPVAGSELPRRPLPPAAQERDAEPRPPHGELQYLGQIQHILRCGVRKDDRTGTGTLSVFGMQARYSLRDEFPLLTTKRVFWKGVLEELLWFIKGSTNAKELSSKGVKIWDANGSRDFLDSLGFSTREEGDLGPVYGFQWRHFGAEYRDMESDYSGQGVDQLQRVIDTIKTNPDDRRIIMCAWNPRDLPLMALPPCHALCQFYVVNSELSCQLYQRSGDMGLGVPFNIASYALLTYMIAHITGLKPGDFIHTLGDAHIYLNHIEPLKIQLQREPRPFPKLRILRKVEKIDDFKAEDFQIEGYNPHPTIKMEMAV

As a reminder, the IC50 is the concentration that inhibits the measured activity by half. Read a high IC50 as weaker potency in that assay. As for `Cc1sc2nc(N)[nH]c(=O)c2c1Sc1ccc2ccccc2c1`, the half-inhibitory concentration (IC50) in assay [1] was 120 nM; in assay [2] it was 2900 nM; in assay [3], 1200 nM; in assay [4], 44 nM.

Turning to `Cc1sc2nc(N)[nH]c(=O)c2c1Sc1ccc(Cl)cc1`, the half-inhibitory concentration (IC50) worked out at 260 nM in assay [1], 1500 nM in assay [2], 2600 nM in assay [3] and 31 nM in assay [4].

For `Cc1sc2nc(N)[nH]c(=O)c2c1Sc1ccc(F)cc1`, the IC50 in assay [1] was 1100 nM; in assay [2] it was 2600 nM.

The term inhibition denotes the share of the control response that was lost under treatment. Read a low inhibition as little suppression. As to `Cc1sc2nc(N)[nH]c(=O)c2c1Sc1ccc(Cl)c(Cl)c1`, the inhibition in assay [5] is 0%. Moreover, the half-maximal inhibitory concentration (IC50) came to 110 nM in assay [1], 1200 nM in assay [3] and 28 nM in assay [4].

`Cc1sc2nc(N)[nH]c(=O)c2c1Sc1ccccc1`: the half-inhibitory concentration (IC50) in assay [1] came to 1200 nM; in assay [2] it was 3500 nM; in assay [3], 8400 nM; in assay [4], 120 nM.

Consider `Cc1[nH]c2nc(N)[nH]c(=O)c2c1Sc1ccc(C(=O)N[C@@H](CCC(=O)O)C(=O)O)cc1`, for which half-maximal inhibition in assay [2] (IC50) required 2200 nM.

Turning to `Cc1sc2nc(N)[nH]c(=O)c2c1Sc1ccncc1`, the concentration for half-maximal inhibition (IC50) came to 280 nM in assay [1], 2500 nM in assay [2], 1400 nM in assay [3] and 34 nM in assay [4].

For the compound `Cc1sc2nc(N)[nH]c(=O)c2c1Sc1ccc([N+](=O)[O-])cc1`, the midpoint of inhibition in assay [1], the IC50, lay at 110 nM.

Compound `Cc1sc2nc(N)[nH]c(=O)c2c1Sc1cc(Cl)cc(Cl)c1` had an inhibition in assay [5] of 0%. The IC50 in assay [1] was found to be 1000 nM; in assay [2], 5600 nM; in assay [3] it was 2300 nM; in assay [4] it was 64 nM.

The values are drawn from ChEMBL document CHEMBL1140135 (J Med Chem, 2008).
